The values that follow come from US6569878B1, “Substituted 4-amino-thiazol-2-yl compounds as cyclin-dependent kinase inhibitors” (Agouron Pharmaceuticals Inc., priority 1997, dated 2003).

Where only a bound is given, the exact number is not on record here.

In experiment [1] the target is T1, complex of human CDK4 and cyclin D3 (Homo sapiens, UniProt P11802).
T1 construct: made in house; host or cells: insect cells, co-infected with baculovirus
Nature of the experiment: Inhibition of CDK4/cyclin D retinoblastoma kinase activity (D-type cyclin is D3). Type of experiment: biochemical. Particulars: superscript a: D-type cyclin is D3; apparent Ki; read-out: Ki CDK 4/D. Put shortly:
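Radiometric assay: [32P]- or [33P]ATP phosphate incorporation into Rb substrate at 30°C for 20 min, stopped with EDTA, filter-captured and phosphorimaged.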

The target in experiment [2] is T2, CDK2/cyclin A (Homo sapiens, UniProt P24941).
T2 construct: made in house; host or cells: CDK2: insect cells (baculovirus); cyclin A: E. coli, then limited proteolysis
Nature of the experiment: Inhibition of CDK2/cyclin A retinoblastoma kinase activity. Type of experiment: biochemical. Particulars: read-out: Ki CDK 2/A. Put shortly: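 Baculovirus-expressed CDK2 with excess proteolyzed cyclin A (or purified complex), 150 nM or 5 nM, phosphorylating an Rb fragment with 25 μM [32/33P]ATP, pH 7.4, 30° C, 20 min. Filter-captured radioactivity by phosphorimager; apparent Ki from fits to competitive or tight-binding competitive inhibition using measured ATP Km.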

The target of experiment [3] is T3, human CDK1 (cdc2) and cyclin B (Homo sapiens, UniProt P06493).
T3 construct: purchased New England Biolabs (Beverly Mass.)
Nature of the experiment: Inhibition of CDK1(cdc2)/cyclin B histone H1 kinase activity. Conditions: read-out: Ki CDK 1/B. The class given is biochemical. Put shortly:
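CDK1/cyclin B (commercial, or CDK1/GST-cyclin B1 from co-infected insect cells) phosphorylated histone H1 with 25 μM [32/33P]ATP at pH 7.4, 30° C for 20 min, 2% DMSO. Product captured on phosphocellulose and read by phosphorimager; apparent Ki from competitive or tight-binding fits, with Km for ATP determined.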

In experiment [4] the test system is HCT116. As to the kind of experiment: Inhibition of cell growth, MTT assay, HCT116. The class given is cell-based, human. Particulars: for inhibition at 30 µM: HCT-116, at 30 μM; for IC50 / IC90: HCT-116. Put shortly: (§1)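 Cells rested 4 h after plating, then exposed to graded compound concentrations in 0.5% (v/v) DMSO for four to six days (cell-type dependent) at 37° C, 5% CO2. Viability was read by MTT (0.2 mg/mL final, 4 h at 37° C), with DMSO-solubilized formazan measured at 540 nm.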
In general terms: Tetrazolium assays rely on reduction of a dye to a coloured formazan, in cell work by metabolically active cells.

Experiment [5] concerns SW-480. As to the kind of experiment: Inhibition of cell growth, MTT assay, SW-480. The class given is cell-based. Conditions: Homo sapiens, SW480, SW-480, MTT assay. How it is done:
Inhibition of cell growth was measured using the tetrazolium salt assay, which is based on the ability of viable cells to reduce 3-(4,5-dimethylthiazol-2-yl)-2,5-[2H]-diphenyltetrazolium bromide (MTT) to formazan (Mossman, Journal of Immunological Methods, vol. 65 (1983), pp. 55-58). The water-insoluble purple formazan product was then detected spectrophotometrically. Various cell lines (HCT-116, Saos-2, U2-OS, SW480, COLO-205, RXF-393, M14, MDA-MB-468, and MCF7) were grown in 96-well plates. Cells were plated in the appropriate medium at a volume of 135 μl/well in either McCoy's 5A Medium (for Saos-2, U2-OS, SW480, and HCT-116 cells), RPMI (for COLO-205, RXF-393, M14 cells), or Minimum Essential Medium Eagle (for MDA-MB-468 and MCF7 cells). Plates were incubated for four hours before addition of inhibitor compounds. Different concentrations of inhibitor compounds were added in 0.5% (v/v) dimethylsulfoxide (15 μL/well), and cells were incubated at 37° C. (5% CO2) for four to six days (depending on cell type). At the end of the incubation, MTT was added to a final concentration of 0.2 mg/mL, and cells were incubated for 4 hours more at 37° C. After centrifugation of the plates and removal of medium, the absorbance of the formazan (solubilized in dimethylsulfoxide) was measured at 540 nm. […] All results were compared to control cells treated only with 0.5% (v/v) dimethylsulfoxide.

For experiment [6], the system named is U2-OS. Nature of the experiment: Inhibition of cell growth, MTT assay, U2-OS. Type of experiment: cell-based. Particulars: for IC50 / IC90: Homo sapiens, U2OS. Put shortly:
as §1

Experiment [7] deals with Saos-2. As to the kind of experiment: Inhibition of cell growth, MTT assay, Saos-2. Type of experiment: cell-based. Particulars: Homo sapiens; Saos-2, MTT assay. The essentials: as §1
Experiment [8] has as its system MCF-7. As to the kind of experiment: Inhibition of cell growth, MTT assay, MCF-7. Conditions: MCF-7, MTT assay; for IC50 / IC90: Homo sapiens, MCF7. The class given is cell-based. How it is done:
(§2) The water-insoluble purple formazan product was then detected spectrophotometrically. […] Plates were incubated for four hours before addition of inhibitor compounds. Different concentrations of inhibitor compounds were added in 0.5% (v/v) dimethylsulfoxide (15 μL/well), and cells were incubated at 37° C. (5% CO2) for four to six days (depending on cell type). At the end of the incubation, MTT was added to a final concentration of 0.2 mg/mL, and cells were incubated for 4 hours more at 37° C. After centrifugation of the plates and removal of medium, the absorbance of the formazan (solubilized in dimethylsulfoxide) was measured at 540 nm.

The subject of experiment [9] is MDA-MB-468. As to the kind of experiment: Inhibition of cell growth, MTT assay, MDA-MB-468. Particulars: Homo sapiens; MDA-MB-468, MTT assay. Type of experiment: cell-based. How it is done:
as §2

T3 sequence (P06493 whole entry): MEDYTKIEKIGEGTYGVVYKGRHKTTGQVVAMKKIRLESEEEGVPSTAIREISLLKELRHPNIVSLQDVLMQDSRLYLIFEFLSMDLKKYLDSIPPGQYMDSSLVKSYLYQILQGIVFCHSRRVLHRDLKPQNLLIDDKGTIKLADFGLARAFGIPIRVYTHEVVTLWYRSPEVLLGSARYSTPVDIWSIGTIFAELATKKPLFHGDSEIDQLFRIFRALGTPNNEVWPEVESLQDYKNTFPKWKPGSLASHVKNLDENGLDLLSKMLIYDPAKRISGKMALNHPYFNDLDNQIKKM
T3 sequence (P14635 whole entry partner): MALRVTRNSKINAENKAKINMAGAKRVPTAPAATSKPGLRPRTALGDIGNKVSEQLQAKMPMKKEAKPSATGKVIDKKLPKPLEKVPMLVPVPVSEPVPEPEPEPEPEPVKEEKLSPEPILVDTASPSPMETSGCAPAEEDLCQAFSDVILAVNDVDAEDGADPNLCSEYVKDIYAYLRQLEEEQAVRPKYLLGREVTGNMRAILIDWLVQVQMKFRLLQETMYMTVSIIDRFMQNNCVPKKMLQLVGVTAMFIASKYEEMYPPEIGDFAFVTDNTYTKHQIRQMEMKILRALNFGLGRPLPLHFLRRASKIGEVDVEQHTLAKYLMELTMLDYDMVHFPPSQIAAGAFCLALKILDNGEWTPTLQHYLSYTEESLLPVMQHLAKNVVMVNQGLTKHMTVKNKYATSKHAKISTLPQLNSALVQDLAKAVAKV
T1 sequence (P11802 whole entry): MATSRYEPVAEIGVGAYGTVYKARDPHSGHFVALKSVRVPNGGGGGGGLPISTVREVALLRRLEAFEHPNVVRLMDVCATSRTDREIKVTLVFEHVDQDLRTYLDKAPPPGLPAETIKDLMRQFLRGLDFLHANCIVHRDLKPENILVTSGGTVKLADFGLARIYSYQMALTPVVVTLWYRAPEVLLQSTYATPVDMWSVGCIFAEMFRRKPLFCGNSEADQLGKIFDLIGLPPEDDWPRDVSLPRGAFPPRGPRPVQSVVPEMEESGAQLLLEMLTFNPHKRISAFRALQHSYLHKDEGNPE
T1 sequence (P30281 whole entry partner): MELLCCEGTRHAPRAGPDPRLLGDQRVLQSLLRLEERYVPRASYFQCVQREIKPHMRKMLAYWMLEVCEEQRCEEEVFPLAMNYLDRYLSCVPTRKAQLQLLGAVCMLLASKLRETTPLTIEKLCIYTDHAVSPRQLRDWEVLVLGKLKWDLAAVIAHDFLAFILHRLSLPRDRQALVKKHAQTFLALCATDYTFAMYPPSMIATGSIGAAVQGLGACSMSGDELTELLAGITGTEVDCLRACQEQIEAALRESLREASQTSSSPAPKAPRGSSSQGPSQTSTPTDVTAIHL

The term inhibition denotes the drop in the measured response relative to a control, in per cent. Turning to `Nc1nc(Nc2cccnc2)sc1C(=O)c1ccccc1` [A(3), [4-Amino-2-(pyridin-3-ylamino)-thiazol-5-yl]-phenyl-methanone], the Ki in experiment [1] was 2000 nM; in [2], 6100 nM; in experiment [3], 3500 nM. Moreover, the inhibition at 30 µM in experiment [4] (Homo sapiens) came out at 41%; in experiment [5], 15%.

As for `Nc1nc(Nc2ccccc2)sc1C(=O)c1ccccn1` [A(4), (4-Amino-2-phenylamino-thiazol-5-yl)-pyridin-2-yl-methanone], the values for the Ki in experiment [1], in [2] and in experiment [3] were 2000 nM, 3100 nM and 2700 nM, respectively. Moreover, the values for the inhibition at 30 µM in experiment [4] (Homo sapiens) and in [5] were 29% and 66%, respectively. In experiment [5] (at 10 μM), this compound had an inhibition at 10 µM of 0%.

Broadly, the IC50 is the concentration that gives 50% inhibition. What is called IC90 is the point of the concentration-response curve where the effect stands at 90%. Consider `CCOC(=O)c1ccc(Nc2nc(N)c(C(=O)c3ccccc3[N+](=O)[O-])s2)cc1` [A(5), Ethyl 4-[4-Amino-5-(2-nitro-benzoyl)-thiazol-2-ylamino]-benzoate], for which the figures for the Ki in experiment [1], in experiment [2] and in experiment [3] were 97 nM, 690 nM and 163 nM, respectively. For the same compound, the half-inhibitory concentration (IC50) was 26000 nM in experiment [4] (Homo sapiens) and 1700 nM in [5]. Also, in experiment [4] (Homo sapiens), 30 µM produced 85% inhibition. Besides, the IC90 in [5] came out at 3000 nM.

Take `Cc1nc2ccc(Nc3nc(N)c(C(=O)c4ccccc4[N+](=O)[O-])s3)cc2[nH]1` [A(6), [4-Amino-2-(2-methyl-1H-benzoimidazol-6-ylamino)-thiazol-5-yl]-(2-nitro-phenyl)-methanone]: the Ki was 150 nM in experiment [1], 292 nM in experiment [2] and 52 nM in experiment [3]. Besides, the values for the IC50 in experiment [4] (Homo sapiens) and in experiment [5] were 20000 nM and 5000 nM, respectively. Further, the IC90 in experiment [4] (Homo sapiens) was determined as 30000 nM; in experiment [5], 15000 nM.

For `Nc1nc(Nc2ccc3nc[nH]c3c2)sc1C(=O)c1ccccc1[N+](=O)[O-]` [A(9), [4-Amino-2-(1H-benzoimidazol-6-yl-amino)-thiazol-5-yl]-(2-nitro-phenyl)-methanone], the values for the Ki in [1], in experiment [2] and in [3] were 100 nM, 230 nM and 53 nM, respectively. The results for the IC50 in [4] (Homo sapiens) and in experiment [5] were 20000 nM and 4000 nM, respectively. The figures for the IC90 in experiment [4] (Homo sapiens) and in experiment [5] were 30000 nM and 10000 nM, respectively.

Take `COc1ccc(Nc2nc(N)c(C(=O)c3ccccc3[N+](=O)[O-])s2)cc1` [A(10), [4-Amino-2-(4-methoxy-phenylamino)-thiazol-5-yl]-(2-nitro-phenyl)-methanone]: the Ki in experiment [1] stood at 36 nM; in [2], 318 nM; in experiment [3], 57 nM. Besides, the IC50 was found to be 950 nM in experiment [4] (Homo sapiens); 900 nM in [6]; 1300 nM in experiment [7]; 650 nM in experiment [8]; 720 nM in experiment [9]; 700 nM in experiment [5]. In addition, the IC90 in experiment [4] (Homo sapiens) stood at 1800 nM; in experiment [6] it was 1600 nM; in experiment [7], 4600 nM; in experiment [8] it was 5500 nM; in experiment [9], 1700 nM; in experiment [5], 7500 nM.

Consider `CN(C)c1ccc(Nc2nc(N)c(C(=O)c3ccccc3[N+](=O)[O-])s2)cc1` [C(4), [4-Amino-2-(4-dimethylamino-phenylamino)-thiazol-5-yl]-(2-nitro-phenyl)-methanone], for which the Ki in experiment [1] amounted to 95 nM; in experiment [2] it was 810 nM; in [3], 90 nM. Also, the IC50 turned out to be 700 nM in [4] (Homo sapiens) and 400 nM in [5]. Moreover, the IC90 in [4] (Homo sapiens) worked out at 30000 nM; in experiment [5] it was 3000 nM.

On to `Nc1nc(NCCc2ccccc2)sc1C(=O)c1ccccc1[N+](=O)[O-]` [C(5), (4-Amino-2-phenethylamino-thiazol-5-yl)-(2-nitro-phenyl)-methanone], for which the values for the Ki in experiment [1], in experiment [2] and in experiment [3] were 140 nM, 780 nM and 293 nM, respectively. In addition, the IC50 in [4] (Homo sapiens) is 6000 nM; in experiment [5], 3000 nM. The IC90 was found to be 25000 nM in experiment [4] (Homo sapiens) and 9000 nM in [5].

For the compound `Cc1c(C(=O)c2sc(Nc3ccc4nc[nH]c4c3)nc2N)sc2ccccc12` [C(8), [4-Amino-2-(1H-benzoimidazol-6-ylamino)-thiazol-5-yl]-(3-methyl-benzo[b]thiophen-2-yl)-methanone], the Ki turned out to be 27 nM in [1], 389 nM in experiment [2] and 97 nM in [3]. Besides, the IC50 worked out at 18000 nM in experiment [4] (Homo sapiens); 10000 nM in experiment [6]; 6200 nM in experiment [7]; 15000 nM in experiment [8]; 6800 nM in experiment [9]; 8300 nM in experiment [5]. Further, the IC90 was above 25000 nM in experiment [4] (Homo sapiens); above 25000 nM in experiment [6]; 18000 nM in experiment [7]; above 25000 nM in [8]; 15000 nM in experiment [9]; 20000 nM in experiment [5]. For the same compound, the entries for the “% inhibition of growth in parentheses after >25” value in experiment [4] (concentration not given), in experiment [6] (concentration not given) and in experiment [8] (concentration not given) were 88%, 84% and “(82%)”, respectively.

Turning to `CN(C)CCN(C)c1ccc(Nc2nc(N)c(C(=O)c3c(F)cccc3F)s2)cc1` [C(110), (4-Amino-2-{4-[(2-dimethylamino-ethyl)-methyl-amino]-phenylamino}-thiazol-5-yl)-(2,6-difluoro-phenyl)-methanone], the Ki is 14 nM in experiment [1], 260 nM in [2] and 104 nM in experiment [3]. The IC50 in [4] (Homo sapiens) worked out at 640 nM; in [6], 700 nM; in experiment [7], 890 nM; in experiment [8] it was 400 nM; in [9] it was 440 nM. Also, the IC90 in [4] (Homo sapiens) came to 1700 nM; in experiment [6] it was 1600 nM; in experiment [7], 1800 nM; in [8], 1700 nM; in [9] it was 750 nM.

`Nc1nc(Nc2ccc(C(=O)O)cc2)sc1C(=O)c1ccccc1[N+](=O)[O-]` [E(1), 4-[4-Amino-5-(2-nitro-benzoyl)-thiazol-2-ylamino]-benzoic Acid]: the results for the Ki in [1], in [2] and in experiment [3] were 420 nM, 320 nM and 30 nM, respectively. Also, in experiment [4] (Homo sapiens, HCT-116, at 10 μM), the inhibition at 10 µM was found to be 17%. Moreover, the inhibition at 30 µM was found to be 17% in [4] (Homo sapiens) and 23% in [5].

On to `CN(C)c1ccc(Nc2nc(N)c(C(=O)c3ccccn3)s2)cc1` [I(19)], for which the Ki in experiment [1] turned out to be 1600 nM; in [2], 4800 nM. Besides, the inhibition at 30 µM was 16% in experiment [4] (Homo sapiens) and 58% in experiment [5]. For the same compound, in [5], inhibition was half-maximal at 22000 nM (IC50).

In the case of `C[C@@H]1CN(c2ccc(Nc3nc(N)c(C(=O)c4c(F)cccc4F)s3)cc2)C[C@H](C)N1` [J(5), {4-Amino-2-[4-(cis-3,5-dimethyl-piperazin-1-yl)-phenylamino]-thiazol-5-yl}-(2,6-difluoro-phenyl)-methanone], the Ki in experiment [1] stood at 6.3 nM; in experiment [2] it was 331 nM; in [3] it was 760 nM. Further, the IC50 in experiment [4] (Homo sapiens) was 700 nM; in experiment [6] it was 1000 nM; in [7], 900 nM. The IC90 in experiment [4] (Homo sapiens) stood at 1600 nM; in [6], 1800 nM; in experiment [7], 1500 nM.
